The target of the assay is Sphingosine 1-phosphate receptor 1 (Homo sapiens) (UniProt P21453). The assay is described as follows: PubChem AID 2351. To be noted: S1P1-expressing cells, fluorescence antagonist assay.

The source made the active and inactive calls. How the calls were made is not given here. A value given as a limit tells only on which side of the number the result lay.

Chain of Sphingosine 1-phosphate receptor 1 (Homo sapiens) (P21453 whole entry, looked up): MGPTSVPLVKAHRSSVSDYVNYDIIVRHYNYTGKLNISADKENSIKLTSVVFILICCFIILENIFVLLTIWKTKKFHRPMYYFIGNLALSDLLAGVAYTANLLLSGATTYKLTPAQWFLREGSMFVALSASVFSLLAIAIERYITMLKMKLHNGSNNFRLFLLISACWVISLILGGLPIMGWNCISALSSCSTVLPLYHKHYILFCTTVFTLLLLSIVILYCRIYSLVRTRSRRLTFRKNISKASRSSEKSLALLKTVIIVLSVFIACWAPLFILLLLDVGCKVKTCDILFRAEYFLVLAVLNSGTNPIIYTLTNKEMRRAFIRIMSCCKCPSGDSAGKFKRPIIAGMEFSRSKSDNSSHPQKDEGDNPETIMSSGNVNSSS

As a reminder, the IC50 is the concentration that inhibits the measured activity by half. Regarding `Cc1cccc(C)c1NC(=O)c1ccc(-c2cc(Cl)ccc2Cl)o1`, the IC50 is > 25 µM (inactive).

The values are drawn from PubChem BioAssay AID2351 (The Scripps Research Institute Molecular Screening Center, 2010).
